# Square brackets hold non-standard residues; d marks the D form. Ends that are not written are not given here. dOrn = NCCC[C@@H](N)C(=O)O; βAla = NCCC(=O)O
# Key:
# human lymphocytes [1] = test: E. coli bacterial-induced lymphocyte apoptosis, staining for active caspase 3; type: cell-based; details: human lymphocytes, live E. coli ~5 hours
# Method: (§1) Thymocytes and splenocytes were obtained from CLP and sham-treated mice ˜20 hours postoperatively. The APO-BRDU™ kit (Phoenix Flow Systems, San Diego, Calif.) was employed for flow cytometric quantitation of TUNEL. Antibodies to active caspase 3 (Cell Signaling—Catalog #9664) were used in the flow cytometry and/or TUNEL assay.
# Lymphocytes were harvested from peripheral blood obtained from 6 healthy volunteers using a ficol gradient separation technique. Approximately 1×10^6 lymphocytes were plated in individual transwell containers. E. coli bacteria (strain ATCC 25922), that had been grown overnight in trypticase soy broth were added to a separate compartment of the transwell chamber separated from direct contact with the lymphocytes by a 0.02 micron filter (25 μl of bacteria at 3×10^9 CFUs added to 1 ml volume.
# [2] = system: sepsis-induced lymphocyte apoptosis; test: Cecal ligation and puncture (CLP) sepsis model, lymphocyte apoptosis by active caspase 3; type: in vivo, C57BL6/J mice; details: mice, 1 mg by mini-osmotic pump plus additional 9.5 mg dose i.p.
# Method: C57BL6/J male mice were housed for at least one week before manipulations. Mice were anesthetized with halothane and an abdominal incision was performed. The cecum was identified, ligated, and punctured with a #30 gauge needle. The abdomen was closed in two layers and 1 cc of 0.9% saline was administered subcutaneously.
# as §1
# The pumps were implanted approximately 3 hours prior to CLP because it requires ˜3 hours for pumps to activate and deliver steady state levels of compound.
# The pumps were not activated until approximately three hours after implantation. […] Spleens, thymi and blood were harvested and examined for apoptosis via staining for active caspase 3.
# human lymphocytes [3] = test: Laser scanning confocal microscopy of internalization into human lymphocytes; type: cell-based; details: 1 μM
# Method: Freshly isolated human lymphocytes were incubated with fluorescently labeled Tat-BH4 peptide to confirm intracellular localization of the functional permeant peptide. For labeling, cells were suspended for 30 minutes in modified Earl's balanced salt solution containing 1 μM of the fluorescently labeled TAT-BH4. Control cells were treated identically except no labeled TAT-BH4 was added. Following fixation for 10 minutes in 4% paraformaldehyde, cells were analyzed for peptide internalization via detection of fluorescence by confocal microscopy using an inverted Zeiss Axiovert 200 laser scanning confocal microscope couple to a Zeiss LSM 5 PASCAL fitted with a 488 nm excitation Argon laser and a 520 nm bandpass emission filter. All images were obtained using a water immersion lens (40×) and identical instrument settings.
Substance,bacterial-induced apoptosis (human lymphocytes [1]; 500 nM),bacterial-induced apoptosis (human lymphocytes [1]; 1 μM),sepsis-induced CD3 T cell and B cell apoptosis in the spleen [2],internalization into human lymphocytes (human lymphocytes [3])
(d)-Ac-RKKRR-Orn-RRR-β-A-(l)-SNRELVVDFLSYKLSQKGYS-COOH (Ac-[dR][dK][dK][dR][dR][dOrn][dR][dR][dR][βAla]SNRELVVDFLSYKLSQKGYS-OH; SMILES CC(=O)N[C@H](CCCNC(=N)N)C(=O)N[C@H](CCCCN)C(=O)N[C@H](CCCCN)C(=O)N[C@H](CCCNC(=N)N)C(=O)N[C@H](CCCNC(=N)N)C(=O)N[C@H](CCCN)C(=O)N[C@H](CCCNC(=N)N)C(=O)N[C@H](CCCNC(=N)N)C(=O)N[C@H](CCCNC(=N)N)C(=O)NCCC(=O)N[C@@H](CO)C(=O)N[C@@H](CC(N)=O)C(=O)N[C@@H](CCCNC(=N)N)C(=O)N[C@@H](CCC(=O)O)C(=O)N[C@@H](CC(C)C)C(=O)N[C@H](C(=O)N[C@H](C(=O)N[C@@H](CC(=O)O)C(=O)N[C@@H](Cc1ccccc1)C(=O)N[C@@H](CC(C)C)C(=O)N[C@@H](CO)C(=O)N[C@@H](Cc1ccc(O)cc1)C(=O)N[C@@H](CCCCN)C(=O)N[C@@H](CC(C)C)C(=O)N[C@@H](CO)C(=O)N[C@@H](CCC(N)=O)C(=O)N[C@@H](CCCCN)C(=O)NCC(=O)N[C@@H](Cc1ccc(O)cc1)C(=O)N[C@@H](CO)C(=O)O)C(C)C)C(C)C) [TAT-BH4],significant decrease,significant decrease,ameliorated the increase,
(d) ac-C(FM)RKKRR-Orn-RRR-β-A-(I)-SNRELVVDFLSYKLSQKGYS-COOH ([dR][dK][dK][dR][dR][dOrn][dR][dR][dR][βAla]SNRELVVDFLSYKLSQKGYS-OH; not fully specified (N-terminus)) [fluorescein conjugated TAT-BH4],,,,located intracellular
